From patent US20230150929A1, “SELECTIVE NON-CYCLIC NUCLEOTIDE ACTIVATORS FOR THE CAMP SENSOR EPAC1” (The Board of Regents of The University of Texas System, priority 2020, published 2023)

Columns and labels:
[1] = biological target: T1, EPAC1 (Homo sapiens, UniProt O95398); test: EPAC1 immunoprecipitation with activation-selective antibody in HEK293T cells; format: cell-based; parameters: expressed in transfected cells; conditions: versus vehicle-treated control, FIG. 10
T1 sequence (O95398 1-923): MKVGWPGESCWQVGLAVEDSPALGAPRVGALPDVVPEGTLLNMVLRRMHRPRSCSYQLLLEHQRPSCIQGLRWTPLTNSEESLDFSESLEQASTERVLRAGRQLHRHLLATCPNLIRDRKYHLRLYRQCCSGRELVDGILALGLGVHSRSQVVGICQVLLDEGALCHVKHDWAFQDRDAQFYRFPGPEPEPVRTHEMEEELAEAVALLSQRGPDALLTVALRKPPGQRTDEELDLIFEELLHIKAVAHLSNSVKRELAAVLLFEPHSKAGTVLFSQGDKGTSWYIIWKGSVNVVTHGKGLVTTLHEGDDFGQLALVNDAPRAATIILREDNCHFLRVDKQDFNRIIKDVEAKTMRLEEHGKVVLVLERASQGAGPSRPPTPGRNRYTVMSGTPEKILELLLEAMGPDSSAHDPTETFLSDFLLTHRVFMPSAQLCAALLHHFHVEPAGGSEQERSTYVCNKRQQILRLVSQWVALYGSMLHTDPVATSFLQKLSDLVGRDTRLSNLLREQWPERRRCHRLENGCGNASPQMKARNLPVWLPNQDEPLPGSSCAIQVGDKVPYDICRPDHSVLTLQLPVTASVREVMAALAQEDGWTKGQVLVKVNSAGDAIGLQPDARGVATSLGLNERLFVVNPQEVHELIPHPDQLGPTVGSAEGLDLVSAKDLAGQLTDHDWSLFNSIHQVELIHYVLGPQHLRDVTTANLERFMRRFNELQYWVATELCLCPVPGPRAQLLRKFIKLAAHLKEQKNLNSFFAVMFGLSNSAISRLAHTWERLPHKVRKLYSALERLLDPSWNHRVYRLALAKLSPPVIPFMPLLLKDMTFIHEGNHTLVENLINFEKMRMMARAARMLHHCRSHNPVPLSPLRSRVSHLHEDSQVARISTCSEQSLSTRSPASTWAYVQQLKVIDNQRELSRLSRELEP
Experimental: FIG. 10. Ability of selected compounds to interact with EPAC1 in cells. HEK293T cells stably transfected with EPAC1 were treated with hit compounds from the screen. EPAC1 was immunoprecipitated from cell lysates using an activation-selective antibody, visualized by western blotting and its levels were quantified densitometrically. Cyclic nucleotide EPAC1 agonist 2 was used as positive control. […] Data from at least three independent experiments are presented in the bar graph as mean ± SEM with significant increases in immunoprecipitated EPAC1 levels in comparison to vehicle-treated control indicated; ^∗∗ p < 0.01, ^∗∗∗ p < 0.001.
(§1) SDS-PAGE and Western Blotting. Samples were prepared by mixing equal volumes of cell lysate and 2x SDS sample loading buffer and denaturing for 5 min at 95° C., unless indicated otherwise. Protein samples were separated by SDS-PAGE on 10% (v/v) polyacrylamide gels, for EPAC1 and VASP, or on 12.5% (v/v), for Rap1, and then transferred to nitrocellulose membranes. Membranes were then blocked for 1 h at room temperature in 5% (w/v) non-fat dry milk or 5% (w/v) BSA in Tris-buffered saline containing 0.1% (v/v) Tween 20, followed by an overnight incubation with primary antibody diluted in blocking buffer at 4° C. Subsequently, the membranes were incubated with appropriate horseradish peroxidase-conjugated secondary antibodies for 1 h at room temperature. For signal detection the SuperSignal West Pico PLUS Chemiluminescent Substrate (Thermo Scientific) was used. Images were acquired using the Fusion FX7 camera platform (Vilber). Densitometry was performed with ImageJ.

[2] = biological target: T2, EPAC1-CNBD (Homo sapiens, UniProt O95398); test: 8-NBD-cAMP competition binding assay, EPAC1-CNBD; conditions: for RFI (%) (relative fluorescence intensity), Table 4: compound 10 µM, EPAC1-CNBD 0.8 µM, 8-NBD-cAMP 62.5 nM, mean ± SEM, lower RFI = stronger binding; for IC50: read-out: IC50 for the EPAC1-CNBD, dose-response, FIG. 3; for IC50 values as EPAC1 binders (in words): summary statement; for EPAC1 binding potency / affinity in words: SAR comment on RFI, mostly relative to 3 or 9a
T2 sequence (O95398 169-318 isoform O95398-3): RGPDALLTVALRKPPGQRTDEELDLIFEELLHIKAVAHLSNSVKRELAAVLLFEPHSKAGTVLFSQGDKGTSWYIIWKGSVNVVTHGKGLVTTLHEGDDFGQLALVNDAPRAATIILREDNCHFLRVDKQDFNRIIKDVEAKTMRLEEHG

[3] = biological target: T1, EPAC1; test: Active Rap1 pull-down in U2OS cells stably transfected with EPAC1; format: cell-based; parameters: expressed in transfected cells; host or cells: U2OS cells (from Professor Holger Rehmann, University of Utrecht); conditions: for Rap1 activation in EPAC1 cells: U2OS-EPAC1, 100 µM compound, 10 min, FIG. 7; for activation of EPAC1 by compound 2 (Rap1-GTP levels): U2OS-EPAC1 cells, in the presence of EPAC1 agonist 2 (007), FIG. 4
Experimental: Series Expansion and EPAC1 vs EPAC2 Selectivity. GEF assay was used to further screen all newly synthesis analogues at 10 µM, to identify additional activating compounds to expand the series of EPAC1 agonists (FIG. 6). […] Having now identified an expanded exemplary series of compounds as potential EPAC1 activators the ability of 25e, 25f, 25g, 25n and 25u to activate EPAC1 and EPAC2 in cellular Rap1 activation assays (FIG. 7) were compared. For these U2OS cells transfected with either EPAC1 or EPAC2 (FIG. 7) was used. […] Densitometry was carried out on all immunoblots and the ratio of EPAC1 to EPAC2 activation was calculated and presented in a bar graph in FIG. 8.
Active Rap1 Pull-down. U2OS cells (from Professor Holger Rehmann, University of Utrecht) stably transfected with EPAC1 or EPAC2 were cultured in 6-well plates in DMEM, high glucose, supplemented with 10% (v/v) FBS, 1% (v/v) GlutaMAX, 1% (v/v) Penicillin-Streptomycin and 2 mg/l puromycin (to ensure selection of stable transfectants). 80% confluent cells were starved in culture medium with reduced FBS concentration (0.5 %) for 16 h and then stimulated for 10 min with either vehicle, 100 µM of studied compounds, or 50 µM of 2 in case of U2OS-EPAC1 or 100 µM of compound 4 for U2OS-EPAC2. Cells were then rinsed with ice-cold PBS and lysed in 0.5 ml cell lysis buffer (Cell Signaling Technologies) supplemented with 10 mM MgCl2 and 1 mM PMSF, followed by clearing the lysates by centrifugation. Cell lysates were incubated for 1 h (4° C., gentle agitation) with 40 µg GST-RalGDS-RBD immobilized on Glutathione Sepharose 4B (GE Healthcare) to selectively capture GTP-bound Rap1. Later on, the glutathione resin was separated from supernatant by centrifugation, washed three times with cell lysis buffer, then resuspended in 2x SDS sample loading buffer and denatured for 5 min at 95° C.
as §1

Structure (SMILES) | EPAC1 immunoprecipitation with activation-selective antibody [1] | RFI (%) (relative fluorescence intensity), Table 4 [2] | IC50 [2] | IC50 values as EPAC1 binders (in words) [2] | Rap1 activation in EPAC1 cells [3] | activation of EPAC1 by compound 2 (Rap1-GTP levels) [3] | EPAC1 binding potency / affinity in words [2]
COc1ccc2ccc(OCC(=O)NS(=O)(=O)c3ccc(N)cc3OC)cc2c1 [Compound 25n, N-((4-Amino-2-methoxyphenyl)sulfonyl)-2-((7-methoxynaphthalen-2-yl)oxy)acetamide] | significant increases in EPAC1 immunoprecipitation | 7 ± 1% | 900 nM | low micromolar to sub-micromolar | activate EPAC1 in cells | enhanced | –
COc1ccc2ccc(OCC(=O)NS(=O)(=O)c3ccc4ccccc4c3)cc2c1 [Compound 25q, 2-((7-Methoxynaphthalen-2-yl)oxy)-N-(naphthalen-2-ylsulfonyl)acetamide] | significant increases in EPAC1 immunoprecipitation | 14 ± 3% | 2200 nM | low micromolar to sub-micromolar | activate EPAC1 in cells | – | significantly enhanced binding potency
COc1ccc(S(=O)(=O)NC(=O)COc2ccc3ccccc3c2)c(OC)c1 [Compound 25g, N-((2,4-Dimethoxyphenyl)sulfonyl)-2-(naphthalen-2-yloxy)acetamide] | significant increases in EPAC1 immunoprecipitation | 23 ± 4% | 4800 nM | low micromolar to sub-micromolar | activate EPAC1 in cells | enhanced | much more potent
